Three compounds from patent US10844057B2, “Process for preparing JAK inhibitors and intermediates thereof” (priority 2018, dated 2020) can be followed below.

Experiment [1] deals with IL-2 stimulated STAT5 phosphorylation in Tall-1 human T cell line. Nature of the experiment: Inhibition of IL-2 stimulated pSTAT5 in Tall-1 T cells. It is filed as cell-based. How it is done: Assay 2: Inhibition of IL-2 Stimulated pSTAT5 in Tall-1 T Cells
The potency of test compounds for inhibition of interleukin-2 (IL-2) stimulated STAT5 phosphorylation was measured in the Tall-1 human T cell line (DSMZ) using AlphaLisa.
Phosphorylated STAT5 was measured via the AlphaLISA SureFire Ultra pSTAT5 (Tyr694/699) kit (PerkinElmer).
Compounds were serially diluted in DMSO and dispensed acoustically to empty wells. Assay media (phenol red-free DMEM (Life Technologies) supplemented with 10% FBS (ATCC)) was dispensed (4 μL/well) and plates shaken at 900 rpm for 10 mins. Cells were seeded at 45,000 cells/well in assay media (4 μL/well), and incubated at 37° C., 5% CO2 for 1 hour, followed by the addition of IL-2 (R&D Systems; final concentration 300 ng/mL) in pre-warmed assay media (4 μL) for 30 minutes. […] The lysate was shaken at 900 rpm for 10 minutes at room temperature (RT). Phosphorylated STAT5 was measured via the pSTAT5 AlphaLisa kit (PerkinElmer). Freshly prepared acceptor bead mixture was dispensed onto lysate (5 μL) under green filtered <100 lux light. Plates were shaken at 900 rpm for 2 mins, briefly spun down, and incubated for 2 hrs at RT in the dark. Donor beads were dispensed (5 μL) under green filtered <100 lux light. Plates were shaken at 900 rpm for 2 minutes, briefly spun down, and incubated overnight at RT in the dark. Luminescence was measured with excitation at 689 nm and emission at 570 nm using an EnVision plate reader (PerkinElmer) under green filtered <100 lux light.
To determine the inhibitory potency of test compounds in response to IL-2, the average emission intensity of beads bound to pSTAT5 was measured in a human T cell line. IC50 values were determined from analysis of the inhibition curves of signal intensity versus compound concentration. Data are expressed as pIC50 (negative decadic logarithm IC50) values (mean±standard deviation).

Another experiment concerns the target Tyk2 (Homo sapiens (Human), UniProt P29597). Nature of the experiment: Biochemical JAK kinase assay (LanthaScreen), Tyk2. The following applies: converted from pIC50 using Cheng-Prusoff; ATP 10 μM. How it is done: (§1) Assay 1: Biochemical JAK Kinase Assays
(§2) A panel of four LanthaScreen JAK biochemical assays (JAK1, 2, 3 and Tyk2) were carried in a common kinase reaction buffer (50 mM HEPES, pH 7.5, 0.01% Brij-35, 10 mM MgCl2, and 1 mM EGTA). Recombinant GST-tagged JAK enzymes and a GFP-tagged STAT1 peptide substrate were obtained from Life Technologies.
(§3) Serially diluted compounds were pre-incubated with each of the four JAK enzymes and the substrate in white 384-well microplates (Corning) at ambient temperature for 1 h. ATP was subsequently added to initiate the kinase reactions in 10 μL total volume, with 1% DMSO. […] Kinase reactions were allowed to proceed for 1 hour at ambient temperature before a 10 μL preparation of EDTA (10 mM final concentration) and Tb-anti-pSTAT1 (pTyr701) antibody (Life Technologies, 2 nM final concentration) in TR-FRET dilution buffer (Life Technologies) was added. The plates were allowed to incubate at ambient temperature for 1 h before being read on the EnVision reader (Perkin Elmer). Emission ratio signals (520 nm/495 nm) were recorded and utilized to calculate the percent inhibition values based on DMSO and background controls.
(§4) For dose-response analysis, percent inhibition data were plotted vs. compound concentrations, and IC50 values were determined from a 4-parameter robust fit model with the Prism software (GraphPad Software). Results were expressed as pIC50 (negative logarithm of IC50) and subsequently converted to pKi (negative logarithm of dissociation constant, Ki) using the Cheng-Prusoff equation.
On the technique in general: In TR-FRET formats the signal depends on donor and acceptor labels being close together.

The target of another experiment is JAK2 (Homo sapiens (Human), UniProt O60674). In words: Biochemical JAK kinase assay (LanthaScreen), JAK2. The method, then: as §1, §2, §3, §4
JAK2, sequence (O60674 whole entry): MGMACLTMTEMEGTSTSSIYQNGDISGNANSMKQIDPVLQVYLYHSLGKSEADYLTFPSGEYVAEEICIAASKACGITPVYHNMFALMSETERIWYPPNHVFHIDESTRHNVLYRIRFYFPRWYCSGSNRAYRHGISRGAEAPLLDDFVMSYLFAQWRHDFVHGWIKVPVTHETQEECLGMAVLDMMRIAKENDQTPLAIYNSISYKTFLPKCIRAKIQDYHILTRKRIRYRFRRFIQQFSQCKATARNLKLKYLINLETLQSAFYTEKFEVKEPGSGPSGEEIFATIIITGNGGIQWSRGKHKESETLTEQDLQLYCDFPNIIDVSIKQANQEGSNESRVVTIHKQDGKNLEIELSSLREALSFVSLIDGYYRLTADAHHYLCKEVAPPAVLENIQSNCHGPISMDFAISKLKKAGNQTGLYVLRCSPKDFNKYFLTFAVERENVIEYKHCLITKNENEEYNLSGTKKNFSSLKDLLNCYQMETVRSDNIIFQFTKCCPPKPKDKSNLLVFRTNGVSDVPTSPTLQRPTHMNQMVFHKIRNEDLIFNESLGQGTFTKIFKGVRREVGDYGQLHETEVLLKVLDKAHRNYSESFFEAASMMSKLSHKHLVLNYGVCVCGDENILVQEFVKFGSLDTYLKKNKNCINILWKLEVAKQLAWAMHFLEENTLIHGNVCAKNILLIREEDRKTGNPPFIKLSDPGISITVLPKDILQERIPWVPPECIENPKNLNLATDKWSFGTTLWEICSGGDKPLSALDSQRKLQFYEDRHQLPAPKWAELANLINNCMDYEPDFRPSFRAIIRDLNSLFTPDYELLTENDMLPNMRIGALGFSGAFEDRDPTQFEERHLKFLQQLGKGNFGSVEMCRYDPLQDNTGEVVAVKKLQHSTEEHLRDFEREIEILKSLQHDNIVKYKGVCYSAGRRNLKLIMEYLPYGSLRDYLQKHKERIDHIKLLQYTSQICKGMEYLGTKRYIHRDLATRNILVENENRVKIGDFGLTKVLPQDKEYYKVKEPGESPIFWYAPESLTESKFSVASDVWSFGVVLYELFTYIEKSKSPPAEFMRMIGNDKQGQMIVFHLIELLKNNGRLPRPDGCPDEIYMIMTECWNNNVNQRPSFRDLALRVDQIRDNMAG
Experiment [2] concerns TSLP-evoked TARC release in human peripheral blood mononuclear cells. In words: Inhibition of TSLP-evoked TARC release in human peripheral blood mononuclear cells. The following applies: read-out: pIC50 ± st. dev., inhibition of TSLP-evoked TARC release (converted). The class given is cell-based. From the text:
Assay 4: Inhibition of TSLP-Evoked TARC Release in Human Peripheral Blood Mononuclear Cells
Thymic stromal lymphopoietin (TSLP) and thymus and activation-regulated chemokine (TARC) are overexpressed in asthmatic airways, and correlate with disease severity. In the lungs, TSLP may be released by bronchial epithelial cells in response to allergens and viral infections. TSLP signals through an IL-7Rα/TSLPR heterodimer found in a broad range of tissues and cell types, including epithelial cells, endothelial cells, neutrophils, macrophages, and mast cells. The binding of TSLP to its receptor induces a conformational change that activates JAK1 and JAK2 to phosphorylate various transcription factors, including STAT3 and STAT5. In immune cells, this triggers a cascade of intracellular events that result in cell proliferation, anti-apoptosis, dendritic cell migration, and production of Th2 cytokines and chemokines. In peripheral blood mononuclear cells (PBMC), TSLP has a proinflammatory effect by activating myeloid dendritic cells to attract and stimulate T cells, a process mediated by the chemoattractant TARC.
The potencies of the test compounds were measured for inhibition of TARC release.
PBMC aliquots (previously isolated from whole blood and frozen in aliquots at −80° C.) from 3 to 5 donors were thawed at 37° C. and added dropwise to 40 mL pre-warmed, sterile-filtered, complete RPMI media in 50 mL Falcon tubes. Cells were pelleted and resuspended in complete media at 2.24×10^6 cells/mL. […] Cells were allowed to rest for 1 hour at 37° C. with 5% CO2.
Compounds were received as 10 mM stock solutions in DMSO. 3.7-fold serial dilutions were performed to generate 9 concentrations of test compound in DMSO at 300× the final assay test concentration. […] 95 μL of 0.2% DMSO in complete media was added to the untreated control wells. Cells were pre-treated with compound for 1 hour at 37° C. with 5% CO2 prior to stimulation.
Immediately prior to use, an aliquot was thawed and prepared at 20× the final assay concentration in complete media. 10 μL of 20×TSLP was added to each well of PBMC, for a final assay concentration of 10 ng/mL. 10 μL of complete media was added to the unstimulated control wells. Cells were stimulated in the presence of compound for 48 hours at 37° C. with 5% CO2.
Following stimulation, the cell culture supernatants were harvested and TARC levels were detected by enzyme-linked immunosorbent assay (ELISA), using Human CCL17/TARC Quantikine ELISA Kit (R&D Systems # DDN00) according to the manufacturer's instructions.
For dose response analysis, the log [test compound (M)] was plotted versus the percent response values for each donor, and IC50 values were determined using a nonlinear regression analysis with GraphPad Prism Software using the 4-parameter sigmoidal dose-response algorithm with variable slope. Data are expressed as mean pIC50 (negative decadic logarithm IC50) values calculated from pIC50 values of individual donors and rounded to one decimal place.

Where [3] appears, read: TALL-1, read-out: Tall-1 pIC50 (converted).

Molecules are shown by their SMILES. Like-named read-outs stand apart in the source and are kept apart here.

Tyk2, sequence (P29597 whole entry): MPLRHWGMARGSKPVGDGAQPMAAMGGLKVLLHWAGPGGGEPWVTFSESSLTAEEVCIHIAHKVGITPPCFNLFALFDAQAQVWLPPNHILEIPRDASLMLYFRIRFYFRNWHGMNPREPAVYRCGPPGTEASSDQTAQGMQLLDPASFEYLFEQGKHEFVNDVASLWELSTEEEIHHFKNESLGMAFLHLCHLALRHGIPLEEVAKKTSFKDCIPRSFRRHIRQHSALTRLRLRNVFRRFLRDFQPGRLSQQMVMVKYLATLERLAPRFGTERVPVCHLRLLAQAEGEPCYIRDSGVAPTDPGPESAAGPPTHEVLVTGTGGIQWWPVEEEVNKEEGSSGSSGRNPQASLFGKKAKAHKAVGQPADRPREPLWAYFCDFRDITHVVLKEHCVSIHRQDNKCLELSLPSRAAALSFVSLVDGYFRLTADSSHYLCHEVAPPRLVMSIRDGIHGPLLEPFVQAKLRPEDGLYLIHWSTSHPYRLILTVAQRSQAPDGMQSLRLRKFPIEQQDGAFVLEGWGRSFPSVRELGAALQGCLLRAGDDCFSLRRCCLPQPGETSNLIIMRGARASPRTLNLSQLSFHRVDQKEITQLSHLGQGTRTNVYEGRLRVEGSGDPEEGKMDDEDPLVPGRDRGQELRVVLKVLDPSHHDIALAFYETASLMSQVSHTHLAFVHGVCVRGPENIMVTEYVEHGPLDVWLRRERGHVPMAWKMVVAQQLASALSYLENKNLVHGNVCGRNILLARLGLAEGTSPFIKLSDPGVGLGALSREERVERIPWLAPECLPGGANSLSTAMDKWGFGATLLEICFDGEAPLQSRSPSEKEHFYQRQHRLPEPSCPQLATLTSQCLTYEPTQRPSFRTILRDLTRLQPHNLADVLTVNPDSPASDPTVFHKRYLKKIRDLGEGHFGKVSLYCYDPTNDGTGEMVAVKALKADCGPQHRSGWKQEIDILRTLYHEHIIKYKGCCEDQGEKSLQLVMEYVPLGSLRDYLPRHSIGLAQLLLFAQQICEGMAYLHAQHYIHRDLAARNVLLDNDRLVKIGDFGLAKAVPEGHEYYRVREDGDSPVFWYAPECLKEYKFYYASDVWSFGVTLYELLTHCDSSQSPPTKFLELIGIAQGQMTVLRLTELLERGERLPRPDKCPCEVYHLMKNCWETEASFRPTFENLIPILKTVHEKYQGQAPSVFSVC

For the compound `CCc1cc(O)ccc1-c1ccc2c(-c3nc4c([nH]3)CN(C(C)C)[C@H](C(=O)N3CC(N(C)C)C3)C4)n[nH]c2c1` [Example 7, (S)-(3-(dimethylamino)azetidin-1-yl)(2-(6-(2-ethyl-4-hydroxyphenyl)-1H-indazol-3-yl)-5-isopropyl-4,5,6,7-tetrahydro-3H-imidazo[4,5-c]pyridin-6-yl)methan One], the IC50 in experiment [1] (IL-2 300 ng/mL, pSTAT5 AlphaLisa, Tall-1 cells, read-out: Tall-1 pIC50 (converted)) was 2.51 nM; in experiment [2] (human PBMC, 3 to 5 donors, TSLP 10 ng/mL, 48 hours, ELISA), 63.1 nM. Moreover, the “Tyk2 pKi” value at Tyk2 was 9.1. Further, the “JAK2 pKi” value at JAK2 (converted from pIC50 using Cheng-Prusoff, ATP 3 μM) was determined as 10.5.
A word on the Ki: it is a measure of affinity in units of concentration, obtained from inhibition or displacement. On to `CCc1cc(O)ccc1-c1ccc2c(-c3nc4c([nH]3)CN(C)[C@H](C(=O)N3CCN(CCO)C[C@H]3C)C4)n[nH]c2c1` [Example 5, ((S)-2-(6-(2-ethyl-4-hydroxyphenyl)-1H-indazol-3-yl)-5-methyl-4,5,6,7-tetrahydro-3H-imidazo[4,5-c]pyridin-6-yl)((R)-4-(2-hydroxyethyl)-2-methylpiperazin-1-yl)methanone], for which the IC50 in experiment [1] (setting [3]) is 1.58 nM; in experiment [2] (Homo sapiens, PBMC, 48 h) it was 31.6 nM. The compound also gave a Ki at JAK2 of 0.0316 nM.
In the case of `CCc1cc(O)ccc1-c1ccc2c(-c3nc4c([nH]3)CN(C(C)C)[C@H](C(=O)N3CCCN(C)CC3)C4)n[nH]c2c1` [Example 4, (S)-(2-(6-(2-ethyl-4-hydroxyphenyl)-1H-indazol-3-yl)-5-isopropyl-4,5,6,7-tetrahydro-3H-imidazo[4,5-c]pyridin-6-yl)(4-methyl-1,4-diazepan-1-yl)methanone], the IC50 in experiment [1] (setting [3]) is 2.51 nM; in experiment [2] (Homo sapiens, PBMC, 48 h), 158 nM.
